pKi: −log10 of the molar value.
What was measured:
[1] = molecular target: T1, Carbonic anhydrase (Stylophora pistillata, UniProt C0IX24)
T1 sequence (C0IX24 whole entry): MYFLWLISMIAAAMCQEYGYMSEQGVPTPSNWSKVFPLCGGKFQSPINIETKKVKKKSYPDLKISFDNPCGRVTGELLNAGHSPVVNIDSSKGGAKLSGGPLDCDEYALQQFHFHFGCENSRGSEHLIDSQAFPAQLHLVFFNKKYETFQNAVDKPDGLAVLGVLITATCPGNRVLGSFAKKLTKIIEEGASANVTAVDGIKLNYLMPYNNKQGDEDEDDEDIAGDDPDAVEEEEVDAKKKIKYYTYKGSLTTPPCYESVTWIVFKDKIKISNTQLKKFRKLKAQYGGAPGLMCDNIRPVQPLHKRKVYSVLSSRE

[2] = molecular target: T2, Alpha carbonic anhydrase (Stylophora pistillata, UniProt B5SU02)
T2 sequence (B5SU02 whole entry): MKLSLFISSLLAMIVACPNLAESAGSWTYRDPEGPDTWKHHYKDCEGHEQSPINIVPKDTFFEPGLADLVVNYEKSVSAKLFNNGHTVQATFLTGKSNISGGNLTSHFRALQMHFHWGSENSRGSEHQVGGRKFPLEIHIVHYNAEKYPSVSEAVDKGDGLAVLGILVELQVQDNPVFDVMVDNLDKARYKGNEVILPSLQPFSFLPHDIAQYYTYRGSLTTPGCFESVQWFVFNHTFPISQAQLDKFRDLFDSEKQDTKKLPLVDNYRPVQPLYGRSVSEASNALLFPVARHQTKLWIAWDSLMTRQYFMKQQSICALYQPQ

[3] = molecular target: Carbonic anhydrase 6 (Homo sapiens, UniProt P23280)
Chain of Carbonic anhydrase 6 (P23280 whole entry): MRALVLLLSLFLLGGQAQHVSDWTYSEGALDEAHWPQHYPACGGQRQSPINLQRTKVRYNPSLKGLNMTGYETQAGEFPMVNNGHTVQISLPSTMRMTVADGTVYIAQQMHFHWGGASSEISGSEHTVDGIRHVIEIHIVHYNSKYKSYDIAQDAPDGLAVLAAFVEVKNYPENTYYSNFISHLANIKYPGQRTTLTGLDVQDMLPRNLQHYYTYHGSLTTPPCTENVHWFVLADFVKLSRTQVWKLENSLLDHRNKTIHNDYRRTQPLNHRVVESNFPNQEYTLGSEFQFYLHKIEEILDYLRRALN

[4] = molecular target: Carbonic anhydrase 1 (Homo sapiens, UniProt P00915)
Chain of Carbonic anhydrase 1 (P00915 whole entry): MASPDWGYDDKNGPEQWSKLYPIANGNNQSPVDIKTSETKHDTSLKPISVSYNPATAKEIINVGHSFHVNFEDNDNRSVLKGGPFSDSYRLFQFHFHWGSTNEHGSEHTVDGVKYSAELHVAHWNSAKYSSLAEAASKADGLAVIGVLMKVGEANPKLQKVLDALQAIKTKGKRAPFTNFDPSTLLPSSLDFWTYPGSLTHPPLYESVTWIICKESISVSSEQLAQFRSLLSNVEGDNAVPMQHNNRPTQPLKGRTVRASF

| Compound | pKi [1] | pKi [2] | pKi [3] | pKi [4] |
| --- | --- | --- | --- | --- |
| NNc1ccccc1S(N)(=O)=O | 6.19 |  |  |  |
| Nc1ccc(S(N)(=O)=O)cc1I | 6.16 |  |  |  |
| Nc1ccc(S(N)(=O)=O)cc1Br | 6.27 |  |  |  |
| NCCc1ccc(S(N)(=O)=O)cc1 | 6.24 |  |  |  |
| Nc1ccc(S(=O)(=O)NCCc2ccc(S(N)(=O)=O)cc2)cc1 | 6.04 |  |  |  |
| NS(=O)(=O)c1ccc(S(=O)(=O)Nc2cccc3c(Cl)c[nH]c23)cc1 | 6.40 |  |  |  |
| NS(=O)(=O)c1nnc(NS(=O)(=O)c2ccccc2)s1 [BENZOLAMIDE] | 6.67 |  |  |  |
| CCN[C@H]1CN(CCCOC)S(=O)(=O)c2sc(S(N)(=O)=O)cc21 [BRINZOLAMIDE] | 6.77 |  |  |  |
| Br [BROMIDE] | 3.02 | 5.01 | 3.14 |  |
| Cc1ccc(-c2cc(C(F)(F)F)nn2-c2ccc(S(N)(=O)=O)cc2)cc1 [CELECOXIB] | 6.16 |  |  |  |
| N#CO [CYANATE] | 3.16 | 3.23 | 3.16 |  |
| F [FLUORIDE ION] | 3.04 | 3.21 | 3.22 |  |
| Cl [HYDROCHLORIC ACID] | 3.28 | 3.30 | 3.14 |  |
| I [IODIDE] | 1.48 | 5.05 | 3.09 |  |
| NCc1ccc(S(N)(=O)=O)cc1 [MAFENIDE] | 6.29 |  |  |  |
| O=[N+]([O-])O [NITRIC ACID] | 3.00 | 3.25 | 3.12 |  |
| O=NO [NITROUS ACID] | 2.50 | 3.11 | 3.09 |  |
| Cc1ccc(S(N)(=O)=O)cc1 [P-TOLUENESULFONAMIDE] | 6.29 |  |  |  |
| OB(O)c1ccccc1 [PHENYLBORONIC ACID] | 11.09 | 9.17 | 9.09 | 7.23 |
| O=C1NS(=O)(=O)c2ccccc21 [SACCHARIN] | 6.98 |  | 6.03 |  |
| NS(=O)(=O)O [SULFAMATE] | 11.07 | 9.09 |  | 10.68 |
| NS(N)(=O)=O [SULFAMIDE] | 11.24 |  |  |  |
| O=S(O)O [SULFUROUS ACID] | 3.37 | 3.39 | 1.85 |  |
| S1SSSSSSS1 [SULFUR] | 2.40 | 3.24 | 3.15 | 6.22 |
